{"source": "patent US11185539B2", "about": "(priority 2017, dated 2021)", "key": {"[1]": {"system": "C57BL/6N mice with angiotensin II-induced diastolic heart failure", "assay": "Echocardiography in therapeutic murine model (angiotensin II for eight weeks)", "type": "in vivo", "conditions": "therapeutic: Bufalin 0.5 mg/kg i.p. every other day from week 2; week 8", "procedure": "(§1) Diastolic heart failure (HF) was induced in C57BL/6N mice via implantation of angiotensin II filled minipumps (see Example 3). In difference to Example 3, C57BL/6N mice were infused with 3 mg/kg/day angiotensin II by subcutaneously implanted minipumps for eight weeks.\n(§2) Next, Bufalin or Lycorine (dissolved in DMSO) or the solvent DMSO alone (as control) were injected intraperitoneally (i.p) every other day until the endpoint, starting two weeks after start of angiotensin II-infusion (see FIG. 11).\nDiastolic HF was induced in C57BL/6 mice and Bufalin or Lycorine were injected as indicated in Example 5. Eight weeks after the operation, cardiac function of the mice was assessed echocardiographically (n=5-12 per group) by treating the mice with said compounds (Bufalin: 0.5 mg/kg, Lycorine 4.5 mg/kg).\nA decrease of the Myocardial Performance Index (MPI) (see FIG. 12B) as well as a reduction of the isovolumetric relaxation time (IVRT) (see FIG. 12C) and an increase in E to A peak ratio (E/A) (the ratio of the early (E) to late (A) ventricular filling velocities as a marker of the function of the left ventricle of the heart) (see FIG. 12D) indicate improvement of both global (MPI) and diastolic (IVRT and E/A) function of the heart, in particular for Bufalin."}, "[2]": {"system": "C57BL/6N mice with angiotensin II-induced diastolic heart failure", "assay": "2-dimensional speckle-tracking strain echocardiography, therapeutic model", "type": "in vivo", "conditions": "therapeutic: Bufalin 0.5 mg/kg; week 8", "procedure": "as §1, §2\nDiastolic HF was induced in C57BL/6 mice and Bufalin were injected as indicated in Example 5. Eight weeks after the operation, cardiac function of the mice was assessed echocardiographically (n=3-6 per group) by treating the mice with said compounds (Bufalin: 0.5 mg/kg)\nAdditionally, myocardial deformation was assessed using strain imaging such as 2-dimensional speckle-tracking strain echocardiography. Global longitudinal strain (GLS), a measure for the deformation of the myocardium, which decreases when diastolic dysfunction is present, is depicted in FIG. 15."}, "miRNA expression of HCFs": {"system": "miRNA expression of HCFs", "assay": "High-throughput miRNA sequencing in HCFs", "type": "cell-based, human", "conditions": "1 μM, 24 h, vs DMSO", "procedure": "HCFs were treated with 1 μM Bufalin for 24 h as indicated, total RNA was isolated and subjected to high-throughput miRNA sequencing profiling via deep sequencing, DMSO refers as a control. To perform a high-throughput miRNA sequencing the Illumine® TruSeq® Small RNA technology is used to prepare various RNA species which is known to the person skilled in the art. In view of said technology, advantages of the natural structure common to most known microRNA molecules are taken. Most mature miRNAs have a 5′-phosphate and a 3′-hydroxyl group as a result of the cellular pathway used to create them. Because of this, the Illumina adapters which are used are directly and specifically ligated to miRNAs. Thus, libraries for subsequent cluster generation are prepared, using total RNA as input. Further, adapter ligation, reverse transcription, PCR amplification, and pooled gel purification to generate a library product is applied as it is known to the skilled person in the art. […] Data represent pooled triplicates from 3 independent experiments. Representative experiment shown; the same experiment was performed with all the anti-fibrotic natural substances identified (see FIG. 16)."}}}
{"compound": "C[C@]12CC[C@H](O)C[C@H]1CC[C@@H]1[C@@H]2CC[C@]2(C)[C@@H](c3ccc(=O)oc3)CC[C@]12O", "note": "[Bufalin]", "values": [{"measurement": "E to A peak ratio", "setting": "[1]", "value": "increase"}, {"measurement": "Myocardial Performance Index (MPI)", "setting": "[1]", "value": "decrease"}, {"measurement": "isovolumetric relaxation time (IVRT)", "setting": "[1]", "value": "reduction"}, {"measurement": "ejection fraction (EF)", "setting": "[2]", "value": "remained comparable in all tested groups"}, {"measurement": "global longitudinal strain (GLS)", "setting": "[2]", "value": "significant reversal of the downshift"}, {"measurement": "number of miRNAs downregulated in HCFs", "setting": "miRNA expression of HCFs", "value": 33}, {"measurement": "number of miRNAs upregulated in HCFs", "setting": "miRNA expression of HCFs", "value": 14}]}
